Data set [1] concerns Plasmodium berghei. The data set is described as follows: Antimalarial effect against trophozoite-induced Plasmodium berghei in mice (Mus musculus) after 40 mg/kg subcutaneous dose. The class given is functional.
A short description of data set [2]: The ratio of SD90 of the quinine hydrochloride, to the SD90 of the test substance for the Dose of >30 mg/kg. The class given is functional.
Data set [3] relates to Plasmodium berghei. The data set is described as follows: Antimalarial effect against trophozoite-induced Plasmodium berghei in mice (Mus musculus) at 160 mg/kg subcutaneous dose. The data set is classed as functional.
The subject of data set [4] is Mus musculus. The data set is described as follows: (§1) Number of toxic deaths at a dose of 640 mg/kg. The arrangement: dose 640 mg/kg. As to conditions: in vivo. The class given is toxicity, organism-based.
The subject of data set [5] is Plasmodium berghei. The data set is described as follows: Antimalarial activity against trophozoite-induced Plasmodium berghei in mice (Mus musculus). The class given is functional.
The subject of data set [6] is Plasmodium berghei. The data set is described as follows: Antimalarial effect against trophozoite-induced Plasmodium berghei in mice (Mus musculus) at 320 mg/kg subcutaneous dose. The data set is classed as functional.
The subject of data set [7] is Plasmodium berghei. The data set is described as follows: Antimalarial effect against trophozoite-induced Plasmodium berghei in mice (Mus musculus) at 80 mg/kg subcutaneous dose. The data set is classed as functional.
For data set [8], the system named is Plasmodium berghei. The data set is described as follows: Antimalarial effect against trophozoite-induced Plasmodium berghei in mice (Mus musculus) after 20 mg/kg subcutaneous dose. The data set is classed as functional.
A short description of data set [9]: The ratio of SD90 of the quinine hydrochloride, to the SD90 of the test substance for the Dose of 50 mg/kg. The class given is functional.
The subject of data set [10] is Plasmodium berghei. The data set is described as follows: Antimalarial effect against trophozoite-induced Plasmodium berghei in mice (Mus musculus) at 640 mg/kg subcutaneous dose. The data set is classed as functional. As to conditions: 640 mg/kg.
Data set [11] deals with Mus musculus. The data set is described as §1. The class given is functional.
Data set [12] concerns Mus musculus. Nature of the data set: Number of mice cured at a dose of 80 mg/kg sc. The note with it: route subcutaneous. The class given is functional.
Data set [13] concerns Mus musculus. The data set is described as follows: Number of mice cured at a subcutaneous dose of 160 mg/kg. The data set is classed as functional.
Data set [14] concerns Mus musculus. The data set is described as follows: Number of mice cured at a dose of 640 mg/kg sc. The note with it: route subcutaneous, 640 mg/kg. The class given is functional.
Data set [15] deals with Mus musculus. The data set is described as follows: Number of mice cured at a subcutaneous dose of 320 mg/kg. The data set is classed as functional. As to conditions: 320 mg/kg.
For data set [16], the system named is Mus musculus. Nature of the data set: Number of mice cured at a dose of 40 mg/kg sc. The data set is classed as functional. As to conditions: route subcutaneous.
The nature of data set [17]: The ratio of SD90 of the quinine hydrochloride, to the SD90 of the test substance for the Dose of 0.28 mg/kg. The data set is classed as functional.
In data set [18] the test system is Mus musculus. The data set is described as follows: (§2) The ratio of SD90 of the quinine hydrochloride, to the SD90 of the test substance for the Dose of 8.5 mg/kg. The data set is classed as functional.
Data set [19] is described as follows: as §2. The data set is classed as functional.
Data set [20] relates to Mus musculus. The data set is described as follows: Antimalarial effect against trophozoite-induced Plasmodium berghei in mice (Mus musculus) at dosage of 80 mg/kg after subcutaneous administration. The data set is classed as functional.
For data set [21], the system named is Mus musculus. The data set is described as follows: Antimalarial effect against trophozoite-induced Plasmodium berghei in mice (Mus musculus) at dosage of 80 mg/kg after subcutaneous administration; No. of mice (Mus musculus) surviving after 60 days 1. The class given is functional.
Data set [22] concerns Plasmodium berghei. The data set is described as follows: Antimalarial activity against trophozoite-induced Plasmodium berghei in mice (Mus musculus) at 160 mg/kg subcutaneous dose. The data set is classed as functional. As to conditions: 160 mg/kg.
Data set [23] deals with Mus musculus. The data set is described as follows: Number of mice cured at a dose of 320 mg/kg sc. The class given is functional. The note with it: route subcutaneous.
In data set [24] the test system is Mus musculus. Nature of the data set: Antimalarial effect against trophozoite induced Plasmodium berghei in mice (Mus musculus) at dosage of 160 mg/kg after subcutaneous administration; No. of mice (Mus musculus) surviving after 60 days 1. The data set is classed as functional.

“And” between values parts separate entries of the source, which are not always exact repeats. Equal entries are not always repeated.

For the compound `CCOc1ccc(Nc2nc(NCCN(CC)CC)c3ccc(Cl)cc3n2)cc1CN(CC)CC`, the MST in the data set with Plasmodium berghei [1] came to 0.6 days; with Plasmodium berghei [3], 0.8 days. Moreover, the Ratio in data set [2] was under 2.5. In addition, in the data set on Mus musculus [4], the “No. of toxic deaths” value came out at 5. Besides, the SD90 in the data set with Plasmodium berghei [5] was over 30 mg/kg/day.

Regarding `CCN(CC)CCNc1nc(Nc2ccc(N3CCN(C)CC3)cc2)nc2ccccc12`, the MST with Plasmodium berghei [6] is 5.2 days; in the data set with Plasmodium berghei [1] (40 mg/kg), 1 days and 0.8 days; in the data set on Plasmodium berghei [7], 3.4 days; in the data set with Plasmodium berghei [8] it was 0.2 days; with Plasmodium berghei [3] (160 mg/kg) it was 4.8 days and 4.2 days; in the data set on Plasmodium berghei [10], 6.8 days and 6.3 days. Besides, the “No. of toxic deaths” value in the data set with Mus musculus [4] and in the data set on Mus musculus [11] was 3 throughout. For the same compound, the Ratio in data set [9] stood at 1.5. This compound came in with an SD90 with Plasmodium berghei [5] of 50 mg/kg/day.

On to `CCc1nc(N)nc(N)c1-c1ccc(Cl)cc1` [PYRIMETHAMINE], for which the No. of survivals is 3 in the data set with Mus musculus [12]; 5 in the data set with Mus musculus [13]; 1 and 2 with Mus musculus [14]; 2 and 3 with Mus musculus [15]; 1 with Mus musculus [16]. The compound further returned an MST in the data set on Plasmodium berghei [8] of 7.7 days. For the same compound, in data set [17], the Ratio came to 270. Further, the SD90 with Plasmodium berghei [5] amounted to 0.28 mg/kg/day.

With `CCN(CC)C1CCC(Nc2nc(Nc3ccc(Cl)c(Cl)c3)nc3ccccc23)CC1` (stereo not given), the Ratio (in the data set with Mus musculus [18]; in data set [19]) was 8.8 each time. In addition, the MST with Plasmodium berghei [6] was 22.9 days; in the data set with Plasmodium berghei [1] (40 mg/kg), 10.1 days and 10.5 days; in the data set on Mus musculus [20], 10.4 days; with Plasmodium berghei [8] it was 0.9 days; in the data set on Mus musculus [21], 10.4 days; in the data set with Plasmodium berghei [22], 13.9 days and 13.7 days. For the same compound, the MST with Mus musculus [24] was 13.7 days. The compound also registered a No. of survivals with Mus musculus [13] of 1. In addition, the No. of cured in the data set on Mus musculus [23] is given as 5. Moreover, in the data set on Plasmodium berghei [5], the SD90 is 8.5 mg/kg/day.

(Values after ChEMBL document CHEMBL1121775, “Synthesis and antimalarial effects of N2-aryl-N4-[(dialkylamino)alkyl]- and N4-aryl-N2-[(dialkylamino)alkyl]-2,4-quinazolinediamines” (J Med Chem, 1981).)
